Experimental data from patent US7727516B2, “Reduction of hair growth” (The Procter & Gamble Company, priority 2006, dated 2010).

Legend:
[1] = test system: human hair follicles in growth phase (anagen); experiment: Human hair follicle growth assay (hair follicle culture model); type: cell-based; details: follicle length day 6 minus day 0, statistically significant, read-out: hair growth inhibition compared to the control
Protocol: Human hair follicles in growth phase (anagen) were isolated from face-lift tissue (obtained from plastic surgeons). The skin was sliced into thin strips exposing 2-3 rows of follicles that could readily be dissected. Follicles were placed into William's E medium (Life Technologies, Gaithersburg, Md.) supplemented with 2 mM L-glutamine, 10 µg/ml insulin, 10 ng/ml hydrocortisone, and an antibiotic/antimicotic mixture as described in Philpott et al. (1990) J. Cell Sci. 97 (Pt3):463-71. The follicles were incubated in 24-well plates (1 follicle/well) at 37° C. in an atmosphere of 5% CO2 and 100% humidity for different periods of time (Philpott et al. (1990) supra). The length of hair follicle was assessed using an image analysis software system. To determine the effect of molecules modulating TRPM8/TRPA1 activity on hair growth, hair follicles were incubated with icilin (Tocris Bioscience) and L-Menthol, L-menthyl lactate (Sigma). Hair follicle images were taken in the 24-well plates under the dissecting scope under a power of 20×. Hair follicle length was measured on day 0 (day follicles were placed in culture) and again on day 6. The growth of hair fiber was calculated by the subtracting the follicle length on day 0 from that determined on day 6. To identify whether modulation of TRPM8 and TRPA1 activity could affect hair growth, their agonists were tested in the hair follicle culture model. Hair follicle treatment with 10 uM of menthol, icilin, and menthyl lactate, caused statistically significant hair growth inhibition by 40%, 45% and 60% respectively, compared to the control. […] Thus, activation of either TRPM8 or TRPA1 by a cooling agent leads to a significant reduction of hair growth rate in vitro.

[2] = test system: tyrosinase expression in hair follicles; experiment: Tyrosinase immunohistochemistry in treated hair follicles; type: cell-based, human; details: 10 uM
Protocol: For the immunodetection of melanogenic proteins, sections were incubated with either mouse monoclonal antibody against human tyrosinase or chicken monoclonal antibody against human p-mel 17 (Neomarker and Zymed, respectively; 1:100, overnight), followed by incubation with TRITC-labeled […] (Jackson ImmunoResearch; 45 min, 37° C.) and FITC-labeled goat anti-chicken IgG, respectively. Next, sections were counterstained with Hoechst 33342 (1:300, 15 min) for identification of cell nuclei, and mounted using VectaShield (Vector Laboratories). All sections were examined under a Olympus BX 60 fluorescent microscope and photodocumented with the help of a digital image analysis system (CoolSnap™ cooled CCD camera, Alpha Innotech) To determine whether a TRPM8 and TRPA1 agonist can affect pigment producing activity of the melanocytes, expression of tyrosinase was analyzed in the hair follicles treated with 10 uM icilin by immunohistochemistry. Tyrosinase expression was decreased in treated hair follicles, compared to the control. In addition, the effects of icilin on melanogenic protein expression were tested in human epidermal melanocytes culture. A decrease in tyrosinase and tyrosinase-related protein (TRP)-1 expression levels were observed 48 hours after 10 uM icilin treatment, compared to the control, as determined by Western blot analysis. […]

[3] = test system: Ki-67 immunoreactivity in the hair matrix and outer root sheath; experiment: Ki-67 immunofluorescence for proliferating cells in cultured hair follicles; type: cell-based, human; details: hair follicle treatment, concentration-dependent
Protocol: For detection of proliferating cells the indirect immunofluorescence protocol using rabbit monoclonal antibody against Ki-67. Eight […]m hair follicle sections were fixed in formalin and postfixed in ethanol/acetic acid. […] Counterstaining was performed using HOECHST 33342 dye ([…] in PBS; 10 minutes). Each phase was interspersed by a washing step (three times) in PBS. Finally, sections were mounted using VectaShield Vector Laboratories). All sections were examined under a Olympus BX 60 fluorescent microscope and photodocumented with the help of a digital image analysis system (CoolSnap™ cooled CCD camera, Alpha Innotech) To identify whether modulation of TRPM8 and TRPA1 activity could affect hair growth, their agonists were tested in the hair follicle culture model. Hair follicle treatment with 10 uM of menthol, icilin, and menthyl lactate, caused statistically significant hair growth inhibition by 40%, 45% and 60% respectively, compared to the control. […] Thus, activation of either TRPM8 or TRPA1 by a cooling agent leads to a significant reduction of hair growth rate in vitro.

[4] = test system: human epidermal melanocytes; experiment: Western blot of melanogenic proteins in human epidermal melanocytes culture; type: cell-based; details: 10 uM, 48 hours
Protocol: Total cellular proteins of human melanocytes were harvested in a lysis buffer (Total protein extraction kit; CHEMICON International, Inc). Twenty […]g protein were loaded per lane, separated by 10% sodium dodecyl sulfate polyacrylamide gel electrophoresis, and transferred to nitrocellulose membrane at 100 V for 1 h. Following overnight blocking with 5% nonfat dry milk/bovine serum albumin (BSA) in Tris-phosphate-buffered saline (PBS) (0.5% Tween-20 in PBS) at 4° C., the membrane was incubated overnight with a monoclonal antibody against either tyrosinase or tyrosinase-related protein-1 or actin at a dilution of 1:1000. […] After extensive washing the membrane was incubated for 1 min with the enzyme-linked chemiluminescence Western Blotting Detection Reagent (Amersham, Buckinghamshire, U.K.), and bands were detected on preflashed Kodak X-Omat film and developed after several seconds of exposure.
To determine whether a TRPM8 and TRPA1 agonist can affect pigment producing activity of the melanocytes, expression of tyrosinase was analyzed in the hair follicles treated with 10 uM icilin by immunohistochemistry. […] A decrease in tyrosinase and tyrosinase-related protein (TRP)-1 expression levels were observed 48 hours after 10 uM icilin treatment, compared to the control, as determined by Western blot analysis. […]

Structure (SMILES) | inhibition at 10 µM [1] [%] | tyrosinase expression in treated hair follicles compared to the control [2] | cell proliferation (Ki-67 immunoreactivity in hair matrix and outer root sheath) [3] | tyrosinase expression level compared to the control [4] | tyrosinase-related protein (TRP)-1 expression level compared to the control [4]
CC1CCC(C(C)C)C(OC(=O)C(C)O)C1 (stereo not shown) [menthyl lactate] | 60 | – | – | – | –
O=C1NC(c2cccc([N+](=O)[O-])c2)=CCN1c1ccccc1O [icilin, 1-(2-Hydroxyphenyl)-4-(3-nitrophenyl)-1,2,3,6-tetrahydropyrimidin-2-one] | 45 | decreased | inhibition of cell proliferation in a concentration-dependent manner | decrease | decrease
CC1CCC(C(C)C)C(O)C1 (stereo not shown) [menthol] | 40 | – | – | – | –
